Test results published in patent publication US11478496B2, “Treatments of prostate cancer” (THE FLORIDA INTERNATIONAL UNIVERSITY BOARD OF TRUSTEES, priority 2020, dated 2022).

Tests used:
[1] = test system: BER reconstituted with purified Pol β, FEN1, and LIG I; assay: Secondary gel-based BER assay reconstituted with purified core BER enzymes; assay type: biochemical; conditions: 10 μM compound, THF substrate
Experimental: The secondary screening assay was performed as described below in the “Materials and Methods” section. Lane 1 represents the substrate only. Lane 2 indicates the reaction mixture with 5 nM APE1. Lanes 3 and 4 correspond to the reaction mixture with 5 nM APE1, 10 nM pol β, 10 nM FEN1 and 20 nM LIG I in the absence and presence of dimethylsulfoxide (DMSO). Lanes 5 through 19 correspond to the reaction mixture with 5 nM APE1, 10 nM pol β, 10 nM FEN1 and 20 nM LIG I in the presence of indicated compounds. The experiments were repeated at least three times. A representative gel is illustrated.
The hit compounds were subject to secondary assays to determine their ability to reduce the BER capacity when reconstituted with purified core BER enzymes, as well as their inhibitory effects on individual BER enzymes including pol FEN1 and LIG I. The effect of hit compounds on BER capacity and BER enzymes was examined using a denaturing sequencing gel-based assay. 10 μM hit compounds were incubated with 10 nM pol β, 10 nM FEN1 and 20 nM LIG I in BER reaction buffer containing 50 mM Tris-HCl (pH 7.5), 50 mM KCl, 0.1 mM EDTA, 0.1 mg/ml bovine serum albumin, and 0.01% Nonidet P-40 in the presence of 5 mM Mg^2+ and 2 mM ATP. The compounds were initially preincubated with a BER enzyme at varying concentrations for 1 h with rotation. This was followed by the addition of 25 nM ^32P-labeled substrate containing an abasic site, which was precut with 25 or 50 nM APEI. The reaction mixture (20 μL) was incubated at 37° C. for 30 min, and the reaction was terminated by 50 mM EDTA. Substrates, products, and unrepaired BER intermediates were separated by 15% urea-denaturing sequencing gel and detected by a Pharos FX Plus PhosphorImager (Bio-Rad, Hercules, Calif.).
Among the 26 identified compounds, nine were DNA intercalators or inhibitors of human DNA topoisomerases and were excluded from further studies. Thus, […] FDA approved drugs were selected for further testing. To further confirm the inhibitory effects of the lead compounds on BER, the effects of the compounds on BER reactions reconstituted with purified BER core enzymes were initially determined.

RWPE1 cells [2] = assay: Cell Titer Glo cell viability assay, RWPE1; assay type: cell-based; conditions: 10 μM; after 24 h and 48 h; serum free medium with EGF and BPE
Experimental: FIGS. 4A-4B show cellular toxicity of lead compounds in nonmalignant androgen independent prostate-derived cell lines. (4A) PNT1A cells were plated in a 96-well plate at 1×10^4 cell/well in the presence of FBS or CSS. Cells were allowed to attach overnight and were treated with either vehicle (DMSO) or 10 μM of indicated compound. At 24 and 48 h, cellular viability was compared using the Cell Titer Glo Luminescent Cell Viability kit. (4B) RWPE1 cells were plated in a 96-well plate at 1×10^4 cells/well using the specified serum free media. Cells were allowed to attach overnight and treated with 10 μM of indicated compound.
Cell viability was determined using the Cell Titer Glo Cell Viability Assay (Promega, Madison, Wis.), as recommended by manufacturer. All experiments were performed in quadruplicate.
Next, whether the same concentration of compounds decreases the viability of the AR negative and nonmalignant prostate derived cells, PNT1A and RWPE1, was tested.

RWPE1 cells [3] = assay: RTCA impedance proliferation assay, RWPE1; assay type: cell-based; conditions: 10 μM; serum free medium
Experimental: (6A-6B) PNT1A cells were plated onto xCelligence E-plates at 5×10^4 cells per well in media supplemented with 10% FBS (6A) or CSS (6B). Cells were allowed to attach overnight and treated with vehicle (DMSO) or 10 μM of indicated compounds. Cellular impedance was monitored continuously with 30 min intervals. (6C) RWPE1 cells were plated at 5×10^4 cells per well in serum free medium supplemented with Epidermal Growth Factor (EGF) and Bovine Pituitary Extract ([…]) onto E-plates and treated with 10 μM of indicated compounds as indicated. […] Proliferation assays were done using Roche DP Real Time Cell Analyzer (RTCA), as described by the manufacturer. Background impedance was established after incubating E-plates (Acea Biosciences, San Diego, Calif.) with 50 μL media at room temperature for 30 min and placed in RTCA. Cells were then seeded in 100 μL per well. Cells attached overnight and then treated. During attachment stage and after treatment impedance was measured every 30 min. Impedance is represented by cell index and is calculated as follows: CI=(Zi−Zo)/15Ω where Zi is impedance at an individual time point, and Zo is the background impedance. Average CI was calculated from four wells per treatment at each time point and normalized to the impedance immediately after compound addition.

| Compound | BER capacity and production of the BER repair product [1] | RWPE1 cell viability (RWPE1 cells [2]) | RWPE1 proliferation (RWPE1 cells [3]) |
| --- | --- | --- | --- |
| C=C1/C(=C\C=C2/CCC[C@]3(C)[C@@H]([C@H](C)/C=C/[C@@H](O)C4CC4)CC[C@@H]23)C[C@@H](O)C[C@@H]1O [calcipotriene] | significantly reduced BER capacity | significantly decreased | slightly inhibited |
| CC(C)(O/N=C(\C(=O)N[C@@H]1C(=O)N2C(C(=O)[O-])=C(C[n+]3ccccc3)CS[C@H]12)c1csc(N)n1)C(=O)O [ceftazidime] | significantly reduced BER capacity | – | – |
| C[C@@H]1[C@H](O)[C@@H](C)/C=C/C=C/CC/C=C/C=C/C=C/C=C/C(O[C@H]2O[C@H](C)[C@@H](O)[C@H](N)[C@@H]2O)CC2O[C@](O)(CC(O)C(O)CCC(O)CC(O)CC(O)CC(=O)O[C@H]1C)CC(O)C2C(=O)O (stereo partly shown) [nystatin] | significantly reduced BER capacity | – | – |
| CC(=O)Oc1cc2c(s1)CCN(C(C(=O)C1CC1)c1ccccc1F)C2 (stereo not shown) [prasugrel] | significantly reduced BER capacity | significantly decreased | – |
